How the values were obtained:
[1] = tested on: ENR+CD organoids; assay: Primary screen: ATP (CellTiter-Glo 3D, CTG) cell number/viability, 2.5-D 384-well ENR+CD organoids; details: primary screen; for Z.CTG: standard z score;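 as to all read-outs here: compounds given at plating and again on day 3 over a 6-day differentiation from ENR+CV stem-cell-enriched precursors, ATP measured on day 6, plate median as control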
[2] = tested on: ENR+CD organoids (ISC to Paneth cell differentiation); assay: Primary screen: CCh-stimulated lysozyme secretion LYZ.S, 2.5-D 384-well ENR+CD organoid differentiation; format: cell-based, mouse; details: primary screen
Text: (§1) High-throughput screening.

[3] = tested on: ENR+CD organoids (ISC to Paneth cell differentiation); assay: Primary screen: basal (non-stimulated) lysozyme secretion LYZ.NS, 2.5-D 384-well ENR+CD organoid differentiation; format: cell-based, mouse; details: primary screen; for Z.LYZ.NS: standard z score
Text: as §1

Structure (SMILES)	Dose.FC.CTG ([1]; dose 0.08 uM) [log2 fold change]	Dose.FC.CTG ([1]; dose 0.40 uM) [log2 fold change]	Dose.FC.CTG ([1]; dose 2.00 uM) [log2 fold change]	Dose.FC.CTG ([1]; dose 10.00 uM) [log2 fold change]	Z.CTG ([1]; dose 0.08 uM)	Z.CTG ([1]; dose 0.40 uM)	Z.CTG ([1]; dose 2.00 uM)	Z.CTG ([1]; dose 10.00 uM)	Dose.FC.LYZ.S ([2]; dose 0.08 uM) [log2 fold change]	Dose.FC.LYZ.S ([2]; dose 0.40 uM) [log2 fold change]	Dose.FC.LYZ.S ([2]; dose 2.00 uM) [log2 fold change]	Dose.FC.LYZ.S ([2]; dose 10.00 uM) [log2 fold change]	Dose.FC.LYZ.NS ([3]; dose 0.08 uM) [log2 fold change]	Dose.FC.LYZ.NS ([3]; dose 0.40 uM) [log2 fold change]	Dose.FC.LYZ.NS ([3]; dose 2.00 uM) [log2 fold change]	Dose.FC.LYZ.NS ([3]; dose 10.00 uM) [log2 fold change]	Z.LYZ.NS ([3]; dose 0.08 uM)	Z.LYZ.NS ([3]; dose 0.40 uM)	Z.LYZ.NS ([3]; dose 2.00 uM)	Z.LYZ.NS ([3]; dose 10.00 uM)
CCn1c2ccccc2c2cc(Nc3ccnc(NCCCN4CCOCC4)n3)ccc21 [EHop-016]	0.081	0.062	0.088	−0.757	0.193	0.147	0.211	−1.808	0.091	0.012	−0.011	−0.299	0.177	0.035	0.029	−0.203	1.537	0.302	0.252	−1.769
CCN(c1cc(-c2ccc(CN3CCOCC3)cc2)cc(C(=O)NCc2c(C)cc(C)[nH]c2=O)c1C)C1CCOCC1 [EPZ-6438]	0.045	0.075	−0.068	0.336					0.003	−0.023	−0.011	0.046	0.012	−0.023	0.015	0.062	0.108	−0.203	0.130	0.538
COc1cccc(C=NCCN=Cc2cccc(OC)c2[O-])c1[O-].[Cl-].[Mn+3] [EUK 134]	−0.015	−0.162	0.091	−0.024	−0.035	−0.387	0.217	−0.057	0.025	0.057	−0.034	−0.132	0.068	0.003	0.028	−0.085	0.594	0.026	0.247	−0.741
NC(=O)C1CCCc2c1[nH]c1ccc(Cl)cc21 (stereo not shown) [EX 527 (Selisistat)]	0.240	0.174	0.341	0.320	0.574	0.415	0.814	0.766	0.062	0.047	−0.051	−0.011	0.100	0.059	0.030	0.057	0.871	0.512	0.261	0.494
COc1cc2c(cc1Cc1cccc(Cl)c1F)c(=O)c(C(=O)O)cn2[C@H](CO)C(C)C [Elvitegravir (GS-9137, JTK-303)]	−0.001	−0.040	−0.344	−0.737	−0.001	−0.095	−0.823	−1.760	−0.010	0.092	−0.126	−0.135	−0.047	−0.069	−0.094	−0.090	−0.412	−0.598	−0.821	−0.782
CCCCCCCCCCCC1=C(O)C(=O)C=C(O)C1=O [Embelin]	−0.323	−0.723	−0.325	−0.720					−0.034	−0.122	−0.111	−0.119	−0.015	−0.082	−0.055	−0.094	−0.129	−0.712	−0.482	−0.819
OC[C@H]1O[C@@H](c2ccc(Cl)c(Cc3ccc(O[C@H]4CCOC4)cc3)c2)[C@H](O)[C@@H](O)[C@@H]1O [Empagliflozin (BI 10773)]	−0.296	−0.075	−0.192	−0.134	−0.707	−0.178	−0.458	−0.320	−0.051	−0.055	−0.103	−0.022	−0.006	−0.034	−0.009	0.017	−0.052	−0.294	−0.081	0.144
C[C@H](N[C@@H](CCc1ccccc1)C(=O)O)C(=O)N1CCC[C@H]1C(=O)O.O.O [Enalaprilat Dihydrate]	−0.190	−0.124	−0.331	−0.979	−0.454	−0.296	−0.791	−2.338	−0.001	0.111	−0.095	−0.281	0.003	−0.003	−0.022	−0.157	0.027	−0.030	−0.195	−1.364
CCN(CC)C(=O)/C(C#N)=C/c1cc(O)c(O)c([N+](=O)[O-])c1 [Entacapone]	−0.115	−0.065	0.206	−0.391					0.020	0.024	0.072	0.027	0.136	0.012	0.085	0.100	1.183	0.102	0.744	0.870
CNC(=O)c1ccc(N2C(=S)N(c3ccc(C#N)c(C(F)(F)F)c3)C(=O)C2(C)C)cc1F [Enzalutamide (MDV3100)]	0.195	0.256	0.076	0.146	0.465	0.611	0.181	0.348	0.176	0.276	0.077	0.076	0.162	0.166	0.024	0.094	1.411	1.446	0.210	0.820
Cn1cc(C2=C(c3cn(C4CCN(Cc5ccccn5)CC4)c4ccccc34)C(=O)NC2=O)c2ccccc21 [Enzastaurin (LY317615)]	0.236	0.475	0.251	−0.081	0.565	1.135	0.600	−0.194	0.109	0.251	0.053	−0.226	0.085	0.131	0.053	−0.116	0.744	1.143	0.458	−1.012

Reference: US20220323406A1, “METHODS AND COMPOSITIONS FOR DIFFERENTIATING STEM CELLS” (Massachusetts Institute of Technology, priority 2019, published 2022)
